# Read-outs that look alike come from different tables or passages of the source.
# Test system: NOx concentration in blood
# Settings: male SD rats, blood over 4 hours after last administration, FIG. 1
structure (smiles),measurement,setting,value
"N[C@@H](CCC(=O)N[C@@H](CS)C(=O)NCC(=O)O)C(=O)O [glutathione, γ-L-Glu-L-Cys-Gly]",amount of increase in the NOx concentration in blood plasma from the baseline,"25 mg/kg/day reduced glutathione orally once a day for three days, compared to control group",same tendency
same,amount of increase in the NOx concentration in blood plasma from the baseline,"50 mg/kg/day reduced glutathione orally once a day for three days, compared to control group (P<0.05)",significantly increased
